Tests used:
Activin receptor type-1 [1] = molecular target: T1, Activin receptor type-1 (Homo sapiens, UniProt Q04771); assay: Luminescence-Based ADPGlo Kinase Activity Assay: Example 53: The assays were performed in 384-well, low volume microtiter assay plates in a final reaction volume of 6 ul. Dose-response curves were generated by incubating 10 nM of each kinase in 50 mM Hepes pH 7.5, 0.02% Tween 20, 0.02% BSA, 1 mM DTT, 10 uM Na3VO4, 10 mM ß-Glycerolphosphate, 1 mM MgCl2, 12 mM MnCl2 and 15 uM ATP for 60 min at 32° C. in the presence or absence of compound diluted in DMS. The amount of generated ADP is a measure of kinase activity and is quantified using the ADP-Glo Kinase Assay (Promega) according to manufacturer's instructions. […] and incubation at 32° C. for 60 min. ATP is subsequently converted into a bioluminescent signal by adding 6 ul luciferase assay reagents (Kinase detection buffer+Kinase Detection Substrate (Promega)) and further incubation at 32° C. for 60 min. For the measurement of luminescence a PHERAstar Multilabel Reader was used at a measurement interval time of 0.1 second (optical module for luminescence measurements in the 230 nm to 750 nm wavelength range). The luminescent signal positively correlates with kinase activity.
T1 sequence (Q04771 whole entry): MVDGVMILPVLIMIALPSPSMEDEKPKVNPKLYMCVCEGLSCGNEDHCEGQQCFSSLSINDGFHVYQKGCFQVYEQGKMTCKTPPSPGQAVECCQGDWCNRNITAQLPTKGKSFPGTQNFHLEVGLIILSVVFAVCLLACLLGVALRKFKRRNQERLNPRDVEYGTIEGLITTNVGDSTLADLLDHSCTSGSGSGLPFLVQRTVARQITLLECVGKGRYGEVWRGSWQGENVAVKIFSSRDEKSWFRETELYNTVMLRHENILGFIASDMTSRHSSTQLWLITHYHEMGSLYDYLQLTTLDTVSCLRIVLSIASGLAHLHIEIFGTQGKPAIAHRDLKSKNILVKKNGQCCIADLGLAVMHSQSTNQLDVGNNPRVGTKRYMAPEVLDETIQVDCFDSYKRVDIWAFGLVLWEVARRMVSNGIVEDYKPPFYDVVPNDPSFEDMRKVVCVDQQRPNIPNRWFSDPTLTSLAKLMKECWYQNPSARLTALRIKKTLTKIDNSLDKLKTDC

[2] = molecular target: Bone morphogenetic protein receptor type-1B (Homo sapiens, UniProt O00238); assay: In Vitro Enzyme Inhibition Using a Biochemical Peptide Phosphorylation Assay- Caliper Assay: Example 54:The assays were performed in 384-well, low volume microtiter assay plates in a final reaction volume of 9 ul. Dose-response curves were generated by incubating 10 nM of each kinase together with 2 uM of the fluorescently labeled substrate peptide 5-Fluo-Ahx-KKYQAEEN-T-YDEYENKK-amid (10 mM stock …
[3] = molecular target: Bone morphogenetic protein receptor type-1A (Homo sapiens, UniProt P36894); assay: Luminescence-Based ADPGlo Kinase Activity Assay: Example 53: The assays were performed in 384-well, low volume microtiter assay plates in a final reaction volume of 6 ul. Dose-response curves were generated by incubating 10 nM of each kinase in 50 mM Hepes pH 7.5, 0.02% Tween 20, 0.02% BSA, 1 mM DTT, 10 uM Na3VO4, 10 mM ß-Glycerolphosphate, 1 mM MgCl2, 12 mM MnCl2 and 15 uM ATP for 60 min at 32° …
[4] = molecular target: Activin receptor type-1-like (Homo sapiens, UniProt P37023); assay: (§1) In Vitro Enzyme Inhibition Using a Biochemical Peptide Phosphorylation Assay- Caliper Assay: Example 54:The assays were performed in 384-well, low volume microtiter assay plates in a final reaction volume of 9 ul.
TGF-beta receptor type-1 = molecular target: T2, TGF-beta receptor type-1 (Homo sapiens, UniProt P36897); assay: as §1
T2 sequence (P36897 whole entry): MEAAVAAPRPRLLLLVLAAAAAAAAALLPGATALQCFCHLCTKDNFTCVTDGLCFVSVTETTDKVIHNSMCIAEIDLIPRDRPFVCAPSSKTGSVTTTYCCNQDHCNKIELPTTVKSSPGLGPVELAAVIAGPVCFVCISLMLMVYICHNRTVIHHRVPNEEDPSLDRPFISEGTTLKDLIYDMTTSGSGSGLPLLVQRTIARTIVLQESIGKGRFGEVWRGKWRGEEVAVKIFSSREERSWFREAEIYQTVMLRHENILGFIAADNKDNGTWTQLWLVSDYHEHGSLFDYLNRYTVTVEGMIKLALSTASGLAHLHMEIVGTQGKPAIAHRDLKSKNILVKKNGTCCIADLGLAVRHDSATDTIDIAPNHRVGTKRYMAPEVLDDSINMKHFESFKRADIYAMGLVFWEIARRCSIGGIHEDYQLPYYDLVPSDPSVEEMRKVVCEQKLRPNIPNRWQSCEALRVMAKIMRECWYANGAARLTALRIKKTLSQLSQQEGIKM

Activin receptor type-1 [5] = molecular target: T1, Activin receptor type-1; assay: as §1

Sequence of Bone morphogenetic protein receptor type-1A (P36894 whole entry): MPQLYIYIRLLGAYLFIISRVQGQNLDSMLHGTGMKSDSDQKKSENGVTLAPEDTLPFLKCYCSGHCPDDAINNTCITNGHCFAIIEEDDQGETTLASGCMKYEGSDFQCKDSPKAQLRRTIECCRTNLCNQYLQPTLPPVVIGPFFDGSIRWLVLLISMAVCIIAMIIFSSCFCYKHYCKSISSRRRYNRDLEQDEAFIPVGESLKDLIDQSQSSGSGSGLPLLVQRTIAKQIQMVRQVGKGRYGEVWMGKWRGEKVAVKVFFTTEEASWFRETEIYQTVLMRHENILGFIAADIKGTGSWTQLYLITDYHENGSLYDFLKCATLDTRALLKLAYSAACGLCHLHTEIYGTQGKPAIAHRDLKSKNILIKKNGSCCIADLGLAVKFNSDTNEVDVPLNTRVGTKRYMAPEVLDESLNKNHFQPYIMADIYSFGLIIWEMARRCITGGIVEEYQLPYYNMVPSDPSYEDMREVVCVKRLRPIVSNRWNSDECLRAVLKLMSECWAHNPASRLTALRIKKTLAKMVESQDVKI
Sequence of Activin receptor type-1-like (P37023 whole entry): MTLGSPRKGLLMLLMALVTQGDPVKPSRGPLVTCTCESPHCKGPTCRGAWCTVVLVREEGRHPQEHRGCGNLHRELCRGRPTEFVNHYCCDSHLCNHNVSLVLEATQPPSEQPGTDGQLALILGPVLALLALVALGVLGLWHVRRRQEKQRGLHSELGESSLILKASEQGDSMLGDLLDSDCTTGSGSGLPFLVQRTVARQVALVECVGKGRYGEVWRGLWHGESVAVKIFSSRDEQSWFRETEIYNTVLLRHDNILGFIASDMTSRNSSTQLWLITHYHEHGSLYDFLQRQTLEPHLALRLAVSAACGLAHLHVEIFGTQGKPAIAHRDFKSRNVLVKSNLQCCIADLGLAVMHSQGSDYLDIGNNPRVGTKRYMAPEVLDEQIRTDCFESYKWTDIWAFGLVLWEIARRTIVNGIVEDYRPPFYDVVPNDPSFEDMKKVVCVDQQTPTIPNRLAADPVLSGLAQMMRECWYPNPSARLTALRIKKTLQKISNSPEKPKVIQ
Sequence of Bone morphogenetic protein receptor type-1B (O00238 whole entry): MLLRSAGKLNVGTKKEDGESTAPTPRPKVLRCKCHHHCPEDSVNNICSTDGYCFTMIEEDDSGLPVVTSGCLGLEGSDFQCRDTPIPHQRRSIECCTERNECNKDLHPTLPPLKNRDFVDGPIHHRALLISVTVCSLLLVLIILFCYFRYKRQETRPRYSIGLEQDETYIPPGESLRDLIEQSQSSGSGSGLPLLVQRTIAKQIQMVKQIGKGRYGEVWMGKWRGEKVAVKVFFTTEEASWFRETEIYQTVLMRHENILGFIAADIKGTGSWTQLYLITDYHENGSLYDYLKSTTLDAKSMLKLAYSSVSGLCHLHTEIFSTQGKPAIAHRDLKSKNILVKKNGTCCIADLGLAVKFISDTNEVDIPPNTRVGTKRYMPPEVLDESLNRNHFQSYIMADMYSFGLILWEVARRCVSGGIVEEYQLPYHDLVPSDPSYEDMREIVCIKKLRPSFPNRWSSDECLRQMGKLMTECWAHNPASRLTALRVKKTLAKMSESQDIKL

IC50 (Activin receptor type-1 [1]): 110 nM | IC50 [2]: 1200 nM | IC50 [3]: 930 nM | IC50 [4]: 690 nM | IC50 (TGF-beta receptor type-1): 2400 nM | IC50 (Activin receptor type-1 [5]): 160 nM
Compound: CC(C)CN1c2ccc(-c3cncc(-c4ccc(=O)n(C(C)C)c4)c3)cc2CS1(=O)=O

From ChEMBL document CHEMBL5728775, “Pyridinone derivatives and their use as selective ALK-2 inhibitors” (2021)
